Data set [1] deals with normal human keratinocytes (NHEKa). Format: cell-based. As to conditions: 24 hours. The procedure:
The cells used were normal human keratinocytes (NHEKa). All cells were cultured in T75 flasks according to the supplier's guidelines for maintenance of stocks. Frozen stocks of cells that had gone through two passages were seeded into T25 flasks at a seeding density of 2.5×10^3 cells per cm^2. The cells were then left to grow over 5 days with media changes being carried out every two days.
Cell culture treatment media were prepared for all the test compounds at four concentrations, namely 1 μM, 2.5 μM, 5 μM and 10 μM (final concentration). Control treatments on cells of normal media (no treatment) and DMSO were also carried out.
All treatment media were sterilised by filtration and added to the T25 flasks after removal of spent media. The cells were then incubated at 37° C. for 24 hours. The treatment media were removed from the T25 flasks and the cells washed with 5 ml of PBS before 1 ml of Trypsin/EDTA (TE) (Cascade, Mansfield, UK) solution was added to the flaks and left for approximately 8-10 minutes for the cells to lift off the growth surface. The trypsin was neutralised with 3 ml Trypsin Neutraliser (TN) (Cascade). The cells were then harvested and transferred to a separate 15 ml centrifuge tube for each treatment regime. The cells were spun at 180×g for 7 minutes and the medium was removed.
The cells were resuspended in 1 ml of ice cold PBS before being transferred to a microcentrifuge tube and spun at 200×g for 2 minutes. The PBS was removed and the cells were resuspended in 100 μl of binding buffer (10 mM Hepes, 140 mM NaCl, 2.5 mM CaCl2, pH 7.4) before the addition of 5 μl of a propidium iodide (PI) staining solution (BD Biosciences, Cowley, UK). The cells were incubated at 20° C. for 5 minutes before the addition of 300 μl of binding buffer followed by immediate analysis by flow cytometry. Cells taking up the PI stain were dead, cells not staining with PI were viable. The level of staining within the cells could be viewed by flow cytometry.
This type of analysis takes account of the natural variability in the growth and survival of different batches of cells. Data presented are from three repeats +SEM.

Data set [2] relates to Normal human keratinocyte (NHEKa) cells. Put plainly: NHEKa cell proliferation assay (ATP levels, CellTitre-Glo), example 11. Format: cell-based. The procedure:
Normal human keratinocyte (NHEKa) cells were cultured in the presence and absence of set concentrations of the five 18β-glycyrrhetinic acid derivatives, in multi-well assay plates (96), over a five-day period. The cells, seeded at a density of 5,000 or 2,500 cells per well, were cultured in keratinocyte growth medium (KGM) (Cascade Biologics), to which retinol and various concentrations of the 18β-glycyrrhetinic acid derivatives dissolved in KGM and DMSO were added. Control treatments included KGM only, KGM and retinol, and KGM and DMSO.
After the five-day period, cell proliferation was determined by assay of ATP levels (directly associated with cell density) using a commercially available kit (CellTitre-Glo, Promega). In the presence of suitable controls, reduced proliferation (cell growth measured by ATP generation) indicates an anti-proliferative effect of a given 18β-glycyrrhetinic acid derivative.

The next data set concerns NHEKa cells. As to the kind of experiment: NHEKa cell viability/proliferation assay, amended plate design (ATP luminescence), example 12. To be noted: retinol 500 nM; for luminescence compared to the controls: 2.5 μM inhibitor.
Data set [3] concerns the target T1, recombinant human retinol dehydrogenase enzyme 2 (hRoDH-E2) (Homo sapiens, UniProt Q9BPW9).
T1 construct: host or cells: E. coli RIL
As to the kind of experiment: Spectrometric hRoDH-E2 activity assay (retinal generation at 400 nm). As to conditions: E. coli RIL (+hRoDH-E2) SS, 15.625-250 μM, 2.5% DMSO, 125 μM retinol. The format is biochemical. The procedure: A reaction mix was prepared, consisting of a buffered solution containing excess retinol (10 mM HEPES, 150 mM KCl, 2 mM EDTA, pH 8.0; 0.02% Tween 80; 125 μM retinol). Preliminary experiments concluded that sufficient cofactor was present in the crude enzyme source, therefore, this was not supplemented into the reaction buffer. The enzyme source was provided by the BioCatalysis Centre, University of Exeter, as a crude sonicated supernatant (SS) from harvested E. coli RIL cells transfected with the hRoDH-E2 expression vector. […] The reaction, initiated by the addition of enzyme (accounting for 5% total reaction volume), was monitored at 400 nm to measure the generation of retinal from retinol. The rate of retinal generation was determined as the change in milli-absorbance units per minute (mAbs/min).
Multi-well assay plates (96) were preloaded with DMSO (2.5% final reaction volume), containing inhibitor where required. […] The contents of each well were mixed by aspiration and the plate loaded into a multi-well plate reader set at 37° C. The generation of retinal was monitored at 400 nm over 30 minutes, during which time the reaction reached maximum velocity under uninhibited conditions after 600 seconds and began to decelerate after 1200 seconds in each case tested. […]

Where [4] appears, read: all four concentrations (1, 2.5, 5 and 10 μM).

Where two headings read alike, the source gives them in different places.

T1 sequence (Q9BPW9 18-319): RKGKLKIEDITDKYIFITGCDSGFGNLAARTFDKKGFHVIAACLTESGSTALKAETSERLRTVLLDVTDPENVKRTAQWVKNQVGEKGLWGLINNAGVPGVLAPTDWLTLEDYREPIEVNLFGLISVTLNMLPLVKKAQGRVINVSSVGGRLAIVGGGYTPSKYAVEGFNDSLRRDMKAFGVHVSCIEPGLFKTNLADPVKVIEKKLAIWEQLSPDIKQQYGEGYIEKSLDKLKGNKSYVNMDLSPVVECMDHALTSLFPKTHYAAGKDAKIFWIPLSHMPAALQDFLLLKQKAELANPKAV
Experimental for NHEKa cells: To obtain a direct comparison of each inhibitor compared with carbenoxolone, the design of the assay was amended, so that each plate contained a range of different inhibitors at the same concentration compared to carbenoxolone. This removed inter-plate variation when comparing inhibitors used at the same concentration.
The medium (200 μl in each well) was replaced after 24 and 72 hours of growth with fresh pre-warmed medium containing retinol (500 nM final concentration) and the indicated inhibitor, consequently the length of treatment was 72 hours.

Turning to `CC1(C)[C@@H](OC(=O)[C@@H]2CCCC[C@@H]2C(=O)O)CC[C@]2(C)[C@H]3C(=O)C=C4[C@@H]5C[C@@](C)(C(=O)O)CC[C@]5(C)CC[C@@]4(C)[C@]3(C)CC[C@@H]12` (mixture of isomers) [YP024, cis-Cyclohexane-1,2-dicarboxylic acid mono-((3S,4aR,6aR,6bS,8aS,11S, 12aR,14aR,14bS)-11-carboxy-4,4,6a,6b,8a,11,14b-heptamethyl-14-oxo-1,2,3,4,4a,5,6,6a,6b, 7,8,8a,9,10,11,12, 12a, 14, 14a, 14b-icosahydro-picen-3-yl) ester], in data set [1] (setting [4]), the “viability of NHEKa cells (proportion of viable cells referenced to DMSO)” value (“viability of NHEKa cells” below) was “slight increase in viability”.

As for `COC(=O)[C@@]1(C)CC[C@]2(C)CCC3(C)C(=CC(=O)C4[C@@]5(C)CC[C@H](OC(=O)c6ccccc6C(=O)O)C(C)(C)C5CC[C@]43C)[C@@H]2C1` (stereo in doubt) [YP015, Phthalic acid mono-(11-methoxycarbonyl-4,4,6a,6b,8a,11,14b-heptamethyl-14-oxo-1,2,3,4,4a,5,6,6a,6b,7,8,8a,9, 10,11,12,12a, 14,14a, 14b-icosahydro-picen-3-yl) ester], the “viability of NHEKa cells” value in data set [1] (setting [4]) was “no decrease in viability”. In addition, the “anti-proliferative properties compared with carbenoxolone sodium” value in data set [2] (at equal concentrations) is “more potent”.

Regarding `CC(=O)CC(=O)OC1CCC2(C)C(CCC3(C)C2C(=O)C=C2C4CC(C)(C(=O)O)CCC4(C)CCC23C)C1(C)C` (stereo not shown) [YP016, 2,4a,6a,6b,9,9,12a-Heptamethyl-13-oxo-10-(3-oxo-butyryloxy)-1,2,3,4,4a,5,6,6a,6b, 7,8,8a,9,10,11,12, 12a,12b,13,14b-icosahydro-picene-2-carboxylic acid], the “viability of NHEKa cells” value in data set [1] (setting [4]) is “no decrease in viability”.

For `CC(C)(CC(=O)O[C@H]1CC[C@]2(C)[C@H]3C(=O)C=C4[C@@H]5C[C@@](C)(C(=O)O)CC[C@]5(C)CC[C@@]4(C)[C@]3(C)CC[C@H]2C1(C)C)C(=O)O` [YP022, 2,2-Dimethyl-succinic acid 4-((3S,4aR,6aR,6bS,8aS,11S,12aR,14aR,14bS)-11-carboxy-4,4,6a,6b,8a,11,14b-heptamethyl-14-oxo-1,2,3,4,4a,5,6,6a,6b,7,8,8a,9,10,11,12, 12a,14,14a, 14b-icosahydro-picen-3-yl) ester], in the data set on NHEKa cells, the “luminescence compared to the controls” value is reported as “significantly less luminescence”.

Consider `CC1(C)[C@@H](OC(=O)C2=C(C(=O)O)CCC2)CC[C@]2(C)[C@H]3C(=O)C=C4[C@@H]5C[C@@](C)(C(=O)O)CC[C@]5(C)CC[C@@]4(C)[C@]3(C)CC[C@@H]12` [YP026, Cyclopent-1-ene-1,2-dicarboxylic acid mono-((3S,4aR,6aR,6bS,8aS,11S,12aR, 14aR,14bS)-11-carboxy-4,4,6a,6b,8a,11,14b-heptamethyl-14-oxo-1,2,3,4,4a,5,6,6a,6b,7,8,8a,9,10,11,12,12a,14,14a, 14b-icosahydro-picen-3-yl) ester], for which, in the data set on NHEKa cells, the “luminescence compared to the controls” value was “significantly less luminescence”. The “viability of NHEKa cells” value in data set [1] (setting [4]) is “slight increase in viability”.

For the compound `CC1(C)[C@@H](OC(=O)CCC(=O)O)CC[C@]2(C)[C@H]3C(=O)C=C4[C@@H]5C[C@@](C)(C(=O)O)CC[C@]5(C)CC[C@@]4(C)[C@]3(C)CC[C@@H]12` [carbenoxolone sodium, reference compound], the “effect on NHEKa cell proliferation (ATP levels compared to the controls)” value in data set [2] (five-day culture, with retinol, various concentrations) is “suppresses NHEKa cell proliferation”.

As to `CC1(C)[C@@H](OC(=O)CCC(=O)O)CC[C@]2(C)[C@H]3C(=O)C=C4[C@@H]5C[C@@](C)(C(=O)O)CC[C@]5(C)CC[C@@]4(C)[C@]3(C)CC[C@@H]12` [carbenoxolone, reference compound], the “luminescence compared to the controls” value in the data set on NHEKa cells is listed as “significantly less luminescence”. Further, the “luminescence detected compared to the untreated control” value with NHEKa cells (5.0 μM inhibitor) came to 41%. Moreover, the “inhibition of recombinant hRoDH-E2 activity (generation of retinal from retinol)” value in data set [3] is “reduce the generation of retinal from retinol”. Further, the “viability of NHEKa cells” value in data set [1] (1 μM and 2.5 μM) was “slight decrease in viability”.

Take “trans-Cyclohexane-1,2-dicarboxylic acid mono-((3S,4aR,6aR,6bS,8aS,11S, 12aR,14aR,14bS)-11-carboxy-4,4,6a,6b,8a,11,14b-heptamethyl-14-oxo-1,2,3,4,4a,5,6,6a,6b, 7,8,8a,9,10,11,12,12a,14,14a, 14b-icosahydro-picen-3-yl) ester [YP023]”: in data set [1] (setting [4]), the “viability of NHEKa cells” value was “slight increase in viability”.

The record behind these values is patent US20090076032A1, “Derivatives of 18Beta-Glycyrrhetinic Acid” (priority 2006, published 2009).
